What all share (assay): Glasshouse herbicide test, pre- and post-emergence, percentage damage
Common to all, as to type: in vivo

Test [1] relates to Echinochloa crus-galli (ECHCG). The conditions noted are these: 250 g/h, evaluated after 13 days, percentage damage on five point scale; for ECHCG PRE: pre-emergence; for ECHCG POST: post-emergence. An outline of the steps: (§1)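 Potted plants in standard soil; pre-emergence spray after 1 d of cultivation, post-emergence after 8 d. Dose 250 g/h from an acetone/water (50:50), 0.5% Tween 20 formulation. % damage at 13 d, scored 1–5.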

A further test concerns Setaria faberi (SETFA). The conditions noted are these: 250 g/h, evaluated after 13 days, percentage damage on five point scale; for SETFA POST: post-emergence; for SETFA PRE: pre-emergence. An outline of the steps:
as §1

In test [2] the test system is Alopecurus myosuroides (ALOMY). Conditions: 250 g/h, evaluated after 13 days, percentage damage on five point scale; for ALOMY POST: post-emergence; for ALOMY PRE: pre-emergence. The method in brief: as §1
The subject of another test is Lolium perenne (LOLPE). Conditions: 250 g/h, evaluated after 13 days, percentage damage on five point scale; for LOLPE POST: post-emergence; for LOLPE PRE: pre-emergence. The method in brief: as §1
For another test, the system named is Avena fatua (AVEFA). Conditions: 250 g/h, evaluated after 13 days, percentage damage on five point scale; for AVEFA POST: post-emergence; for AVEFA PRE: pre-emergence. An outline of the steps:
as §1

The values below come from patent US11980188B2, “Spiro cyclohexanedione derivates as herbicides” (SYNGENTA PARTICIPATIONS AG, priority 2018, dated 2024).

With `Cc1cc(-c2ccc(C#N)cn2)cc(C)c1C1C(=O)CC2(CCN(C(=O)NC(=O)C(C)(C)C)CC2)CC1=O` [Compound A27], the “ECHCG PRE” value in test [1] is given as 5 (5=80-100%). In the test on Setaria faberi (SETFA), the “SETFA POST” value is listed as 5 (5=80-100%) and the “SETFA PRE” value was 5 (5=80-100%). In test [2], the “ALOMY POST” value is 5 (5=80-100%) and the “ALOMY PRE” value is on record as 4 (4=60-79%). For the same compound, in the test on Lolium perenne (LOLPE), the “LOLPE POST” value is reported as 5 (5=80-100%) and the “LOLPE PRE” value was 4 (4=60-79%). Also, in the test with Avena fatua (AVEFA), the “AVEFA POST” value is recorded as 1 (1=0-19%) and the “AVEFA PRE” value was 2 (2=20-39%).
Regarding `Cc1cc(-c2ncc(F)cn2)cc(C)c1C1C(=O)CC2(CCN(C(=O)NC(=O)c3ccccn3)CC2)CC1=O` [Compound A41], in test [1], the “ECHCG POST” value is reported as 5 (5=80-100%) and the “ECHCG PRE” value is 4 (4=60-79%). Moreover, in the test with Setaria faberi (SETFA), the “SETFA POST” value is 5 (5=80-100%) and the “SETFA PRE” value was 5 (5=80-100%). Also, in test [2], the “ALOMY POST” value was 5 (5=80-100%) and the “ALOMY PRE” value is recorded as 3 (3=40-59%). Besides, in the test on Lolium perenne (LOLPE), the “LOLPE POST” value is given as 5 (5=80-100%) and the “LOLPE PRE” value is 3 (3=40-59%). Besides, in the test on Avena fatua (AVEFA), the “AVEFA POST” value was 5 (5=80-100%) and the “AVEFA PRE” value is given as 3 (3=40-59%).
On to `Cc1cc(-c2ccc(F)cc2)cc(C)c1C1C(=O)CC2(CCN(C(=O)OC(C)(C)C)CC2)CC1=O` [Compound A11], for which, in test [1], the “ECHCG POST” value is on record as 5 (5=80-100%) and the “ECHCG PRE” value is 5 (5=80-100%). In the test on Setaria faberi (SETFA), the “SETFA POST” value was 5 (5=80-100%) and the “SETFA PRE” value is reported as 5 (5=80-100%). Besides, in test [2], the “ALOMY POST” value is 5 (5=80-100%) and the “ALOMY PRE” value is listed as 5 (5=80-100%). In the test on Lolium perenne (LOLPE), the “LOLPE POST” value is reported as 5 (5=80-100%) and the “LOLPE PRE” value was 5 (5=80-100%). Besides, in the test on Avena fatua (AVEFA), the “AVEFA POST” value is recorded as 4 (4=60-79%) and the “AVEFA PRE” value is 4 (4=60-79%).
In the case of `COc1cc(-c2ccc(F)cc2)cc(C)c1C1C(=O)CC2(CCN(C(=O)C(C)O)CC2)CC1=O` (stereo not drawn) [Compound A75], in test [1], the “ECHCG POST” value was 5 (5=80-100%) and the “ECHCG PRE” value was 5 (5=80-100%). In the test on Setaria faberi (SETFA), the “SETFA POST” value is 5 (5=80-100%) and the “SETFA PRE” value is recorded as 5 (5=80-100%). Also, in test [2], the “ALOMY POST” value is on record as 5 (5=80-100%) and the “ALOMY PRE” value was 5 (5=80-100%). Moreover, in the test with Lolium perenne (LOLPE), the “LOLPE POST” value is 5 (5=80-100%) and the “LOLPE PRE” value is reported as 5 (5=80-100%). Further, in the test on Avena fatua (AVEFA), the “AVEFA POST” value is reported as 5 (5=80-100%) and the “AVEFA PRE” value is 5 (5=80-100%).
On to `Cc1cc(-c2ncc(F)cn2)cc(C)c1C1C(=O)CC2(CCN(C(=O)NC(C)(C)C)CC2)CC1=O` [Compound A36], for which the “ECHCG PRE” value in test [1] is 5 (5=80-100%). In addition, in the test with Setaria faberi (SETFA), the “SETFA POST” value was 5 (5=80-100%) and the “SETFA PRE” value was 5 (5=80-100%). Further, in test [2], the “ALOMY POST” value is 5 (5=80-100%) and the “ALOMY PRE” value is on record as 5 (5=80-100%). In the test on Lolium perenne (LOLPE), the “LOLPE POST” value is listed as 5 (5=80-100%) and the “LOLPE PRE” value is recorded as 5 (5=80-100%). For the same compound, in the test on Avena fatua (AVEFA), the “AVEFA POST” value is recorded as 5 (5=80-100%) and the “AVEFA PRE” value is listed as 5 (5=80-100%).
For the compound `CC(=O)N1CCC2(CC1)CC(=O)C(c1c(C)cc(-c3ccc(C#N)cn3)cc1C)C(=O)C2` [Compound A14], the “ECHCG PRE” value in test [1] is listed as 5 (5=80-100%). Moreover, in the test on Setaria faberi (SETFA), the “SETFA POST” value was 5 (5=80-100%) and the “SETFA PRE” value is 5 (5=80-100%). In test [2], the “ALOMY POST” value was 5 (5=80-100%) and the “ALOMY PRE” value is 5 (5=80-100%). Also, in the test with Lolium perenne (LOLPE), the “LOLPE POST” value was 5 (5=80-100%) and the “LOLPE PRE” value was 5 (5=80-100%). Moreover, in the test with Avena fatua (AVEFA), the “AVEFA POST” value is 5 (5=80-100%) and the “AVEFA PRE” value is on record as 5 (5=80-100%).
Regarding `CON1CCC2(CC1)CC(=O)C(c1c(C)cc(-c3ccc(F)cc3)cc1C)C(=O)C2` [Compound A6], in test [1], the “ECHCG POST” value is 5 (5=80-100%) and the “ECHCG PRE” value is given as 5 (5=80-100%). In the test on Setaria faberi (SETFA), the “SETFA POST” value was 5 (5=80-100%) and the “SETFA PRE” value is listed as 5 (5=80-100%). Moreover, in test [2], the “ALOMY POST” value is 5 (5=80-100%) and the “ALOMY PRE” value is given as 5 (5=80-100%). In the test with Lolium perenne (LOLPE), the “LOLPE POST” value was 5 (5=80-100%) and the “LOLPE PRE” value is 5 (5=80-100%). Further, in the test with Avena fatua (AVEFA), the “AVEFA POST” value is 5 (5=80-100%) and the “AVEFA PRE” value was 5 (5=80-100%).
Turning to `CC(=O)OC1=C(c2c(C)cc(-c3ccc(F)cc3)cc2C)C(=O)CC2(CCN(C(C)=O)CC2)C1` [Compound P1], in test [1], the “ECHCG POST” value is recorded as 5 (5=80-100%) and the “ECHCG PRE” value is 5 (5=80-100%). In the test on Setaria faberi (SETFA), the “SETFA POST” value was 5 (5=80-100%) and the “SETFA PRE” value is on record as 5 (5=80-100%). For the same compound, in test [2], the “ALOMY POST” value is on record as 5 (5=80-100%) and the “ALOMY PRE” value is given as 5 (5=80-100%). Besides, in the test on Lolium perenne (LOLPE), the “LOLPE POST” value was 5 (5=80-100%) and the “LOLPE PRE” value is listed as 5 (5=80-100%). Further, in the test on Avena fatua (AVEFA), the “AVEFA POST” value is recorded as 5 (5=80-100%) and the “AVEFA PRE” value is reported as 5 (5=80-100%).
In the case of `Cc1cc(-c2ccc(C#N)cn2)cc(C)c1C1C(=O)CC2(CCN(C(=O)C(C)(C)C)CC2)CC1=O` [Compound A30], in test [1], the “ECHCG POST” value is 5 (5=80-100%) and the “ECHCG PRE” value is 5 (5=80-100%). For the same compound, in the test with Setaria faberi (SETFA), the “SETFA POST” value is recorded as 5 (5=80-100%) and the “SETFA PRE” value was 5 (5=80-100%). Also, in test [2], the “ALOMY POST” value is given as 5 (5=80-100%) and the “ALOMY PRE” value was 5 (5=80-100%). Also, in the test with Lolium perenne (LOLPE), the “LOLPE POST” value was 5 (5=80-100%) and the “LOLPE PRE” value is 5 (5=80-100%). In the test on Avena fatua (AVEFA), the “AVEFA POST” value is given as 5 (5=80-100%) and the “AVEFA PRE” value is given as 3 (3=40-59%).
Consider `COc1cc(-c2ccc(F)cc2)cc(C)c1C1C(=O)CC2(CCN(OC)CC2)CC1=O` [Compound A9], for which, in test [1], the “ECHCG POST” value is on record as 5 (5=80-100%) and the “ECHCG PRE” value is recorded as 5 (5=80-100%). For the same compound, in the test with Setaria faberi (SETFA), the “SETFA POST” value was 5 (5=80-100%) and the “SETFA PRE” value was 5 (5=80-100%). For the same compound, in test [2], the “ALOMY POST” value is 5 (5=80-100%) and the “ALOMY PRE” value is recorded as 5 (5=80-100%). Also, in the test on Lolium perenne (LOLPE), the “LOLPE POST” value is 5 (5=80-100%) and the “LOLPE PRE” value is 5 (5=80-100%). In addition, in the test on Avena fatua (AVEFA), the “AVEFA POST” value is reported as 5 (5=80-100%) and the “AVEFA PRE” value is recorded as 5 (5=80-100%).
As for `Cc1cc(-c2ccc(C#N)cn2)cc(C)c1C1C(=O)CC2(CCN(C(=O)c3ccccn3)CC2)CC1=O` [Compound A24], in test [1], the “ECHCG POST” value is given as 5 (5=80-100%) and the “ECHCG PRE” value is 5 (5=80-100%). Besides, in the test on Setaria faberi (SETFA), the “SETFA POST” value is 5 (5=80-100%) and the “SETFA PRE” value was 5 (5=80-100%). Further, in test [2], the “ALOMY POST” value is 5 (5=80-100%) and the “ALOMY PRE” value is listed as 5 (5=80-100%). In the test with Lolium perenne (LOLPE), the “LOLPE POST” value is on record as 5 (5=80-100%) and the “LOLPE PRE” value is listed as 5 (5=80-100%). Also, in the test on Avena fatua (AVEFA), the “AVEFA POST” value is 5 (5=80-100%) and the “AVEFA PRE” value is 5 (5=80-100%).
For the compound `CC(=O)N1CCC2(CC1)CC(=O)C(c1c(C)cc(-c3ncc(Cl)cc3F)cc1C)C(=O)C2` [Compound A50], in test [1], the “ECHCG POST” value is given as 5 (5=80-100%) and the “ECHCG PRE” value is 5 (5=80-100%). Besides, in the test with Setaria faberi (SETFA), the “SETFA POST” value was 5 (5=80-100%) and the “SETFA PRE” value is given as 5 (5=80-100%). In addition, in test [2], the “ALOMY POST” value is 5 (5=80-100%) and the “ALOMY PRE” value is given as 5 (5=80-100%). In the test with Lolium perenne (LOLPE), the “LOLPE POST” value was 5 (5=80-100%) and the “LOLPE PRE” value is reported as 5 (5=80-100%). Moreover, in the test with Avena fatua (AVEFA), the “AVEFA POST” value was 5 (5=80-100%) and the “AVEFA PRE” value is recorded as 5 (5=80-100%).
